{"source": "patent US9192161B2", "about": "“Fungicidal combinations comprising a dithiino-tetracarboxamide fungicide” (BAYER INTELLECTUAL PROPERTY GMBH, priority 2011, dated 2015)", "tested_on": "Venturia inaequalis", "experiment": "Venturia test (apples)/preventive", "type": "in vivo, Venturia inaequalis on apples", "settings": "preventive spray on young apple plants, evaluated 10 days after inoculation", "description": "Venturia Test (Apples)/Preventive\n• Solvent: 24.5 parts by weight of acetone • 24.5 parts by weight of dimethylacetamide • Emulsifier: 1 part by weight of alkylaryl polyglycol ether\nTo produce a suitable preparation of active compound, 1 part by weight of active compound is mixed with the stated amounts of solvent and emulsifier, and the concentrate is diluted with water to the desired concentration. To test for preventive activity, young plants are sprayed with the preparation of active compound at the stated rate of application. After the spray coating has dried on, the plants are inoculated with an aqueous conidia suspension of the causal agent of apple scab (Venturia inaequalis) and then remain for 1 day in an incubation cabinet at approximately 20° C. and a relative atmospheric humidity of 100%. The plants are then placed in a greenhouse at approximately 21° C. and a relative atmospheric humidity of approximately 90%. The test is evaluated 10 days after the inoculation. 0% means an efficacy which corresponds to that of the untreated control, while an efficacy of 100% means that no disease is observed.", "data": [{"compound": "Cn1c(=O)c2sc3c(=O)n(C)c(=O)c3sc2c1=O", "note": "[(I-1), 2,6-dimethyl-1H,5H-[1,4]dithiino[2,3-c:5,6-c′]dipyrrole-1,3,5,7(2H,6H)-tetrone]", "values": [{"measurement": "Efficacy in % found", "setting": "20 ppm a.i.", "value": 46, "unit": "%"}, {"measurement": "Efficacy in % found", "setting": "40 ppm a.i.", "value": 65, "unit": "%"}]}, {"compound": "COC(c1ccc(Cl)cc1Cl)C(C)NC(=O)c1cn(C)nc1C(F)F", "note": "(stereo not drawn) [(10), 3-(difluoromethyl)-1-methyl-1H-pyrazole-4-carboxylic acid [2-(2,4-dichlorophenyl)-2-methoxy-1-methyl-ethyl]-amide]", "values": [{"measurement": "Efficacy in % found", "setting": "0.4 ppm a.i.", "value": 18, "unit": "%"}]}]}
